Source: patent publication US20220026420A1, “MOLECULES AND METHODS FOR IMPROVED IMMUNODETECTION OF SMALL MOLECULES SUCH AS HISTAMINE” (PRESIDENT AND FELLOWS OF HARVARD COLLEGE, priority 2018, published 2022)

Legend:
[1] = system: anti-histamine antibody; assay: Histamine ELISA in spiked human plasma samples, conventional plate versus BSA-glutaraldehyde surface chemistry; assay type: binding; conditions: FIG. 28
Protocol: In order for the assay design to be used for clinical applications for the rapid quantification of allergy severity, using clinical samples (e.g. human plasma, serum) is one of the most critical aspects. An ELISA plate was prepared using conventional means as shown in FIG. 19 using PEG-dual-histidine. In an alternative approach, an ELISA plate was prepared using the BSA-glutaraldehyde surface chemistry as previously described in international Application No. PCT/US2018/044076, the content of which is herein incorporated by reference. In contrast to the previously described system, no nanoparticles were used. Therefore BSA can be denatured and combined with glutaraldehyde and used to coat ELISA wells. This is then activated using and (1-ethyl-3-(3-dimethylaminopropyl)carbodiimide hydrochloride)/[…] (EDC/NHS) to link to streptavidin which allows attachment of biotin-PEG-dual-histidine. It can be clearly seen full blocking of the ELISA plate when human plasma samples are used for histamine detection. […] As per to date, no method exists to detect histamine in less than 10 minutes.

[2] = system: anti-histamine antibody conjugated to HRP; assay: Refined 5 min histamine ELISA with anti-histamine antibody conjugated to HRP; assay type: binding; conditions: for starting signal compared to PEG-mono histidine: 5 min assay; for Kd: Hill equation fit without the 0 nM histamine data point, read-out: dissociation constant (Kd)
Protocol: The assay was further refined to decrease the total assay time. This was achieved by conjugating the anti-histamine antibody to the detection enzyme HRP 192 as depicted by FIG. 19. The resultant assay could be completed within 5 min. For the present study, only PEG-mono histidine and PEG-dual histidine were used. FIG. 20A and FIG. 20B show the results obtained from the study.
The data points obtained were fitted using a Hill equation which further assisted to characterize the linkers under study.
Histamine detection assay could be performed in two formats. The first format includes the immobilization of histamine conjugates to the solid support while the second format includes the immobilization of anti-histamine antibody on the solid support. For the immobilization of histamine conjugates the immobilization sample was prepared in 0.2 M carbonate-bicarbonate buffer (pH 9.4). Immobilisation samples herein refers to BSA-histamine, Streptavidin, and not limited to BSA-Histidine Samples. A high binding polystyrene 96 well ELISA plate was coated with 100 microliters of immobilization sample and the plates were incubated overnight at 4° C. Each well was then washed thrice with 0.01M phosphate-buffered saline with 0.05% Tween 20 (pH 7.4). To each well was then added 250 microliters 1% BSA solution prepared in 0.01M phosphate-buffered saline with 0.05% Tween 20 (pH 7.4) for 1 hour at ambient temperature. Each well was then washed three times with 0.01M phosphate-buffered saline with 0.05% Tween 20 (pH 7.4). For Streptavidin coated plates, to each well was then added 100 microliters of linkers prepared in 0.1% BSA in 0.01M phosphate-buffered saline with 0.05% Tween 20 (pH 7.4) as described in the other sections for 2 hours at ambient temperature on a shaker at 260 rpm. Each well was then washed three times with 0.01M phosphate-buffered saline with 0.05% Tween 20 (pH 7.4). The plate was then incubated with 50 microlitres of different concentration of free histamine and co-incubated with anti-histamine antibody for 1 hour at ambient temperature. […]. Anti-histamine antibody was prepared in 0.1% BSA in 0.01M phosphate-buffered saline with 0.05% Tween 20 (pH 7.4). After the incubation, each well was washed three times with 0.01M phosphate-buffered saline with 0.05% Tween 20 (pH 7.4). The plates were then incubated with a secondary antibody labelled with HRP prepared in 0.1% BSA in 0.01M phosphate-buffered saline with 0.05% Tween 20 (pH 7.4) in for 1 hour at ambient temperature. After the incubation, each well was washed three times with 0.01M phosphate-buffered saline with 0.05% Tween 20 (pH 7.4). Each well was then incubated with TMB turbo (150 microlitres) for 30 minute (measurement at a wavelength of 650 nm) followed by addition of 150 microlitres of 0.16 M Sulphuric acid to stop the solution in some examples where measurements are taken at a wavelength of 450 nm. […] Independent incubation time is described in each section.

[3] = target: anti-histamine antibody; assay: 5-minute electrochemical assay in spiked human plasma samples; assay type: binding
Source text: The Immuno-assay developed on the ELISA plates using PEG-dual Histidine was translated to an electrochemical platform to develop a biosensor for free histamine detection in human plasma samples.

[4] = system: anti-histamine antibody; assay: Competitive histamine ELISA with PEG linkers on streptavidin plates, anti-IgG HRP detection; assay type: binding
Protocol: To identify an antibody that recognizes free histamine with improved (lower) binding affinities, we used the PEG-mono-histidine linker (Structure 1) as a target with antibodies that we previously screened with BSA-histamine, i.e., the antibodies listed in FIG. 3A. […] The monovalent histidine linker (25 μM) 86 was added for 1 hour, and then 5 μg ml^−1 anti-histamine antibody was incubated with different concentrations of soluble histamine for 1 hour at room temperature on a shaker 88. Finally, anti-IgG labelled HRP 810 was used to detect the bound antibodies.
The monovalent histidine linker (25 μM) 86 was added for 1 hour, and then 5 μg ml^−1 anti-histamine antibody was incubated with different concentrations of soluble histamine for 1 hour at room temperature on a shaker 88. Finally, anti-IgG labelled HRP 810 was used to detect the bound antibodies.
Histamine detection assay could be performed in two formats. The first format includes the immobilization of histamine conjugates to the solid support while the second format includes the immobilization of anti-histamine antibody on the solid support. For the immobilization of histamine conjugates the immobilization sample was prepared in 0.2 M carbonate-bicarbonate buffer (pH 9.4). Immobilisation samples herein refers to BSA-histamine, Streptavidin, and not limited to BSA-Histidine Samples. A high binding polystyrene 96 well ELISA plate was coated with 100 microliters of immobilization sample and the plates were incubated overnight at 4° C. Each well was then washed thrice with 0.01M phosphate-buffered saline with 0.05% Tween 20 (pH 7.4). To each well was then added 250 microliters 1% BSA solution prepared in 0.01M phosphate-buffered saline with 0.05% Tween 20 (pH 7.4) for 1 hour at ambient temperature. Each well was then washed three times with 0.01M phosphate-buffered saline with 0.05% Tween 20 (pH 7.4). For Streptavidin coated plates, to each well was then added 100 microliters of linkers prepared in 0.1% BSA in 0.01M phosphate-buffered saline with 0.05% Tween 20 (pH 7.4) as described in the other sections for 2 hours at ambient temperature on a shaker at 260 rpm. Each well was then washed three times with 0.01M phosphate-buffered saline with 0.05% Tween 20 (pH 7.4). The plate was then incubated with 50 microlitres of different concentration of free histamine and co-incubated with anti-histamine antibody for 1 hour at ambient temperature. […]. Anti-histamine antibody was prepared in 0.1% BSA in 0.01M phosphate-buffered saline with 0.05% Tween 20 (pH 7.4). After the incubation, each well was washed three times with 0.01M phosphate-buffered saline with 0.05% Tween 20 (pH 7.4). […]

[5] = system: anti-histamine antibody conjugated to HRP; assay: ELISA affinity of anti-histamine antibody-HRP to different linkers, without free histamine; assay type: binding; conditions: 5 minutes, no free histamine, compared to PEG-mono-histidine linker, FIG. 26
Source text: FIG. 26 is a plot of a comparison of PEG-mono histamine with PEG-mono histidine using streptavidin coated ELISA plates. As illustrated, the data presents the affinity of anti-histamine antibody conjugated to HRP to different histamine conjugate linkers. As in the previous studies, streptavidin modified plates were used, here to study PEG-Mono-Histamine, PEG-mono-Histidine, PEG-phenyl-histidine and PEG-glutamate-histidine. The assay format was as per FIG. 19 without free histamine in the solution. The modified plates were then exposed to different concentrations of anti-histamine antibodies conjugated with HRP for 5 minutes.

[6] = system: anti-histamine antibody; assay: Electrochemical biosensor for free histamine detection; assay type: binding; conditions: gold electrode, FIG. 12B
Protocol: The Immuno-assay developed on the ELISA plates was translated to an electrochemical platform to provide a biosensor for free histamine detection. The lowest concentration tested with the sensor was 2.7 nM which generated a statistically significant difference from the background. […] FIG. 12B is a semi-log plot showing the calibration curves for the electrochemical sensor using the structure depicted by FIG. 12A. Detection occurs as free […] competes and displaces Biotin-PEG6-Histidine conjugate from the anti-histamine.

[7] = system: Monoclonal Anti-Dinitrophenyl antibody conjugated with HRP; assay: Competitive DNP ELISA with DNP linkers on streptavidin plates; assay type: binding, mouse; conditions: FIG. 25
Protocol: Monoclonal Anti-Dinitrophenyl antibody produced in mouse (D8406) and 2,4-Dinitrophenol (D198501 was purchased from Sigma. The anti-DNP antibody was directly conjugated with HRP using a commercial kit e.g., LIGHTENING-LINK™ Antibody Labeling Kits available from Novus Biolgicals. Once again ELISA plate coated with streptavidin was used as described in FIG. 19. After blocking, the plates were incubated with the respective linker. Different concentrations of DNP with anti-DNP antibody was co-incubated for 45 minutes at room temperature in the dark. After incubation, the wells were washed 3 times with 200 μL PBST and incubated with 150 μL TMB for 10 minutes. Finally, 150 μL of stop solution was added and absorbance measurement was observed. FIG. 25 is a plot showing ELISA results with Mono-DNP linker (blue) versus PEG-Dual-DNP linker (red). As with the dual histadine linkers, a clear difference could be seen between single and dual DNP linker. There is nearly a 30% increase in the signal intensity from single to dual DNP molecule.

[8] = system: anti-histamine antibody labelled with HRP; assay: 5 min histamine ELISA with BSA-PEG-mono-Histidine conjugate coated plates; assay type: binding; conditions: 5 min incubation, FIG. 23
Protocol: The thiol-PEG-mono Histidine linker was attached to BSA as follows. A 1 mL aliquot of maleimide conjugation buffer obtained from Thermo scientific was added to 10 mg of purified thiol-PEG-mono Histidine linker. Subsequently, the 1 mL solution containing the thiol-PEG-mono Histidine was added to 5 mg of commercially available BSA-maleimide substrate and allowed to react at room temperature for 4 h to provide the histidine-PEG-BSA conjugate. The histidine-PEG-BSA conjugate was purified using a 10K spin column. The histidine-PEG-BSA conjugate obtained was then used to modify the ELISA plate wells and assay was performed using a 5 min incubation time. […] The steps include coating the plates with BSA-PEG-Histidine conjugate 222, blocking with BSA 224, and incubation with HRP labeled anti-histamine antibody and free histamine 226. FIG. 23 presents the results obtained and compared to BSA-histamine (commercial, FIG. 5). […] The used and anti-histamine antibody labelled with HRP in a 5 min incubation time assay.

Question: What does the source list for `NC(=O)C(CCCCNC(=O)C(CCCCNC(=O)C(N)Cc1c[nH]cn1)NC(=O)C(N)Cc1c[nH]cn1)NC(=O)CCOCCOCCOCCOCCNC(=O)CCCCC1SC[C@H]2NC(=O)N[C@@H]12` (stereo partly drawn) [PEG-dual Histidine, Biotin-PEG-Dual-Histidine]?
Answer: histamine detection in spiked human plasma ([1]; BSA-glutaraldehyde surface chemistry, under 10-minute assay): clear detection of histamine; histamine detection in spiked human plasma ([1]; ELISA plate prepared by conventional means): full blocking; starting signal compared to PEG-mono histidine [2]: higher starting signal; dynamic range compared to PEG-mono histidine ([2]; FIG. 21): broader dynamic range; Kd ([2]; FIG. 21): 280 nM; Kd ([3]; Hill equation fit without the 0 nM histamine data point, human plasma): 6.76 nM; histamine concentration generating a statistically significant current change ([3]; spiked human plasma, FIG. 24): 3.75 nM; starting signal compared to PEG-mono-histidine ([4]; 5 min incubation of anti-histamine antibody, FIG. 18A): increased starting signal; antibody binding specificity and sensitivity compared to the single histidine conjugate ([4]; FIG. 11): significant improvement

Question: Which “binding affinity of anti-histamine antibody” value [5] does the source give for `NC(=O)C(CCCCNC(=O)C(CCC(=O)O)CC(=O)C(N)Cc1cnc[nH]1)NC(=O)CCOCCOCCOCCOCCNC(=O)CCCCC1SC[C@H]2NC(=O)N[C@@H]12` (stereo partly drawn) [PEG-glutamate-histidine, Biotin-PEG-Glutamate-Histadine] here?
Answer: nearly no binding

Question: `NC(Cc1c[nH]cn1)C(=O)NCCOCCOCCOCCOCCOCCOCCNC(=O)CCCCC1SC[C@H]2NC(=O)N[C@@H]12` (stereo partly drawn) [PEG-mono Histidine, Biotin-PEG-Mono-Histidine] was tested. Which “lowest concentration tested generating a statistically significant difference from the background” value [6] did it give?
Answer: 2.7 nM

Question: What about the Kd ([2]; FIG. 21) of the same compound?
Answer: 449 nM

Question: What about the “signal enhancement and sensitivity versus immobilized BSA-histamine” value ([4]; FIG. 10) of the same compound?
Answer: significantly improved

Question: Which “sensitivity of the assay compared to PEG-mono-histidine” value ([2]; 5-minute histamine assay, FIG. 27) does the source give for `NC(=O)C(CCCCNC(=O)C(Cc1ccccc1)NC(=O)C(N)Cc1cnc[nH]1)NC(=O)CCOCCOCCOCCOCCNC(=O)CCCCC1SC[C@@H]2NC(=O)N[C@H]12` (stereo partly drawn) [PEG-phenyl-histidine, Biotin-PEG-Phenyl-Histadine] here?
Answer: no significant difference

Question: And the “starting signal compared to PEG-mono histidine” value [2]?
Answer: lower starting signal

Question: What about the “binding affinity of anti-histamine antibody” value [5] of the same compound?
Answer: decreased significantly

Question: What does the source list for `NC(=O)C(CCCCNC(=O)C(CCCCNc1cc([N+](=O)[O-])ccc1[N+](=O)[O-])Nc1cc([N+](=O)[O-])ccc1[N+](=O)[O-])NC(=O)CCOCCOCCOCCOCCNC(=O)CCCCC1SC[C@H]2NC(=O)N[C@@H]12` (stereo partly drawn) [dual DNP, Biotin-PEG-Dual-DNP]?
Answer: increase in the signal intensity from single to dual DNP molecule ([7]; 45 min co-incubation): ~30%; dynamic range compared to single DNP linker [7]: broader dynamic range

Question: Which “sensitivity towards free histamine compared to BSA-histamine (commercial)” value [8] does the source give for “PEG-mono Histidine modified BSA: thiol-PEG-mono Histidine linker (Structure 5) attached to commercially available BSA-maleimide” here?
Answer: increased sensitivity

Question: What does the source list for “biotin-EG6-histamine [PEG-mono-histamine]”?
Answer: binding affinity of anti-histamine antibody [5]: high binding affinity; detection of free histamine ([4]; concentration range studied, streptavidin coated plates, FIG. 15): could not be detected
